Assays:
vacuolar H+ pump = assay: Golgi lumenal pH time course with Golgi-targeted phOx-fluorescein; type: cell-based; conditions: 100 nM, Golgi pH initially ~6.3, individual cells
Description: Cells were labeled at two days after transfection, with phOx-fluorophore conjugates by incubation with low concentrations (<100 nM) of the conjugates. […] Images were recorded at room temperature on a K2 BIO microscope (Technical Instruments) equipped with a 60× PlanApo objective (Nikon, N. A. 1.4), coaxial-confocal attachment, and cooled CCD camera (Photometrics). Dual-excitation ratio images of fluorescein were acquired using 440 and 490 nm excitation filters and a 520 nm long pass emission filter (Chroma). Continuous recordings of the fluorescence time course were obtained on a Nikon Diaphot epifluorescence microscope equipped with a 100× PlanApo objective (Nikon, N. A. 1.4), a photomultiplier using a 530 nm bandpass emission filter and an optical filter changer (Model 10-C, Sutter Instrument Co.) containing 440 and 490 nm excitation filters. Cuvette fluorescence measurements were conducted on an SLM 8000c fluorometer (SLM Aminco). Spectra were recorded with 4 nm slit widths; time courses were acquired with 495 nm excitation and a […] longpass emission filter.
Organelle-specific sFv targeting was applied to measure Golgi pH using phOx-fluorescein as the probe. […] The dependence of the fluorescence ratio on pH was measured for Golgi and plasma membrane-expressed sFv (FIG. 4A). […]

[1] = tested on: CHO cells expressing targeted sFv; assay: Site-specific fluorescent labeling of living CHO cells expressing targeted sFv; type: cell-based; conditions: addition of 1 μM
Description: CHO cells (ATCC CRL 9618) were transfected with plasmids encoding targeted sFv using lipofectamine (Gibco) as is known in the art.
Cells were labeled at two days after transfection, with phOx-fluorophore conjugates by incubation with low concentrations (<100 nM) of the conjugates. […] Images were recorded at room temperature on a K2 BIO microscope (Technical Instruments) equipped with a 60× PlanApo objective (Nikon, N. A. 1.4), coaxial-confocal attachment, and cooled CCD camera (Photometrics). Dual-excitation ratio images of fluorescein were acquired using 440 and 490 nm excitation filters and a 520 nm long pass emission filter (Chroma). Continuous recordings of the fluorescence time course were obtained on a Nikon Diaphot epifluorescence microscope equipped with a 100× PlanApo objective (Nikon, N. A. 1.4), a photomultiplier using a 530 nm bandpass emission filter and an optical filter changer (Model 10-C, Sutter Instrument Co.) containing 440 and 490 nm excitation filters. Cuvette fluorescence measurements were conducted on an SLM 8000c fluorometer (SLM Aminco). Spectra were recorded with 4 nm slit widths; time courses were acquired with 495 nm excitation and a 510 mm longpass emission filter.
The various sFv targeting constructs and phOx conjugates were studied in CHO cells. […] For quantitative measurement of organelle pH, the free dye was washed out of the bathing solutions.

SMILES: CO/C1=C\C(C)=C\[C@@H](C)[C@@H](O)[C@@H](C)C/C(C)=C/C=C/[C@H](OC)[C@@H]([C@@H](C)[C@@H](O)[C@H](C)[C@@]2(O)C[C@@H](O)[C@H](C)[C@@H](C(C)C)O2)OC1=O [bafilomycin A1]
- change of Golgi pH after addition (vacuolar H+ pump): promptly alkalinized

SMILES: O=C1OC(c2ccccc2)=NC1=CNCCO [phOx-ethanolamine]
- effect on phOx-Bodipy staining of Golgi (competition) [1]: reversed
